In this test the target is T1, FGFR1-GST (Homo sapiens, UniProt P11362).
T1 construct: GST; made in house
Put plainly: FGFR-1 TR-FRET biochemical assay. The protocol: FGFR-1 TR-FRET Biochemical Assay
The FGFR-1 Assay was performed on half well 96-well opaque plates (Costar 3915) in a LANCE format. LANCE is a homogenous time resolved fluormetry based application available through Perkin Elmer. For this assay, 50 uL reactions were set up using: 0.6 uM ATP (Sigma), 25 nM poly GT-biotin (CIS BIO International), 2 nM Eu-labelled phospho-Tyr Ab (PY20 PerkinElmer), 10 nM Streptavidin-APC (Perkin Elmer), 5 nM FGFR1-GST (generated by DRT, Bayer Healthcare), 1% DMSO, 50 mM HEPES pH 7.5, 10 mM MgCl2, 0.1 mM EDTA, 0.015% Brij, 0.1 mg/ml BSA, 0.1% B-mercaptoethanol. All reactions were initiated with the addition of enzyme and were left to incubate for one hour at room temperature. Time-resolved fluorescence was then read on a Perkin Elmer VictorV Multilabel counter. The reading protocol uses an excitation wavelength at 340 nm and emission reads at both 615 and 665 nm. Signal was calculated as a ratio: (Fluorescence at 665 nm/Fluorescence at […])*10000 for each well. The background control used for this assay is the signal produced with all assay components excluding ATP. For IC50 generation, compounds were added prior to the enzyme initiation. A 50-fold stock plate was made with compounds serially diluted 1:5 in a 50% DMSO/50% dH2O solution. A 1 μL addition of the stock to the assay wells gave final compound concentrations ranging from 10 μM −0.128 nM in 1% DMSO. The data were expressed as percent inhibition: % inhibition=100−((Signal with inhibitor-background)/(Signal without inhibitor−background))*100.
(Time-resolved FRET reads energy transfer from a long-lived donor to a nearby acceptor.)

SMILES strings stand for the structures.

T1 sequence (P11362 22-822): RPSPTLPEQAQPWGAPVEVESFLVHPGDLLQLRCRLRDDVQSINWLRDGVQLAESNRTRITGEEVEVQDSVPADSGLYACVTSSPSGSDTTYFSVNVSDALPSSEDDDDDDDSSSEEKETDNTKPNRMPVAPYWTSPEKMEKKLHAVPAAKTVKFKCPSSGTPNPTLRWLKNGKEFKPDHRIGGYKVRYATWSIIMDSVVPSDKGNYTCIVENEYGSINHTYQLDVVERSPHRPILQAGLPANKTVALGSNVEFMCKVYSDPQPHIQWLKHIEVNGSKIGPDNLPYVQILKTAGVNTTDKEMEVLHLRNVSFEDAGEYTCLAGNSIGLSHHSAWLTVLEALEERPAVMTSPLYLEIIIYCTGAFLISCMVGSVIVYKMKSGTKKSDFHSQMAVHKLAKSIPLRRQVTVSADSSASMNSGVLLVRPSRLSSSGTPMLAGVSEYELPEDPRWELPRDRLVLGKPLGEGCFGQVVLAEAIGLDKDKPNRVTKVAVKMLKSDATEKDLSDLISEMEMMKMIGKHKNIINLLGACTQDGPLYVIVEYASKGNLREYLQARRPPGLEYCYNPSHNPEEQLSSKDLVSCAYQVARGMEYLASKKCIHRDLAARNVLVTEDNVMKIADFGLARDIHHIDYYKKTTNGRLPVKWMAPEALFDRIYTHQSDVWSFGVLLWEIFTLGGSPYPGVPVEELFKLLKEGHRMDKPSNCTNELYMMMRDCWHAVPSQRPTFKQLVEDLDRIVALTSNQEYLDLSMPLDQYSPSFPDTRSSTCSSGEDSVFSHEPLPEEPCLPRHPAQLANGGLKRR

In the case of `N#CCc1c(-c2ccc(NC(=O)Nc3cc(C(F)(F)F)ccn3)cc2)c2c(N)ncnn2c1CN1CCNC(=O)C1` [Example 66, N-(4-{4-amino-6-(cyanomethyl)-7-[(3-oxopiperazin-1-yl)methyl]-pyrrolo[2,1-f][1,2,4]triazin-5-yl}phenyl)-N′-[4-(trifluoromethyl)pyridin-2-yl]urea], for the setting “bounds given in nM”, the half-inhibitory concentration (IC50) (commonly the concentration that gives 50% inhibition) was less than 10 nM.

As to `N#CCc1c(-c2ccc(NC(=O)Nc3cc(C(F)(F)F)ccn3)cc2)c2c(N)ncnn2c1CN1CCOCC1` [Example 63, N-{4-[4-amino-6-(cyanomethyl)-7-(morpholin-4-ylmethyl)-pyrrolo[2,1-f][1,2,4]triazin-5-yl]phenyl}-N′-[4-(trifluoromethyl)-pyridin-2-yl]urea], under “bounds given in nM”, the IC50 is less than 10 nM.

For the setting “bounds given in nM”, `COCc1c(-c2ccc(NC(=O)Nc3cc(C(C)(C)C)ccn3)c(F)c2)c2c(N)ncnn2c1CN1CCOCC1` [Example 135, N-{4-[4-amino-6-(methoxymethyl)-7-(morpholin-4-ylmethyl)-pyrrolo[2,1-f][1,2,4]triazin-5-yl]-2-fluorophenyl}-N′-(4-tert-butylpyridin-2-yl)urea] yielded an IC50 of less than 10 nM. `CCOC(=O)c1c(-c2ccc(NC(=O)Nc3cc(C(F)(F)F)ccn3)cc2)c2c(N)ncnn2c1-c1ccc(OC)cc1` [Example 4, ethyl 4-amino-7-(4-methoxyphenyl)-5-{4-[({[4-(trifluoromethyl)pyridin-2-yl]amino}carbonyl)amino]-phenyl}pyrrolo[2,1-f][1,2,4]triazine-6-carboxylate] had an IC50 (bounds given in nM) of 10 to 100 nM. Same read-out and setting: the figure for `COCc1c(-c2ccc(NC(=O)Nc3cc(C(F)(F)F)ccc3Cl)c(F)c2)c2c(N)ncnn2c1CN1CCOCC1` [Example 142, N-{4-[4-amino-6-(methoxymethyl)-7-(morpholin-4-ylmethyl)-pyrrolo[2,1-f][1,2,4]triazin-5-yl]-2-fluorophenyl}-N′-[2-chloro-5-(trifluoromethyl)phenyl]urea] is 10 to 100 nM; for `N#CCc1c(-c2ccc(NC(=O)Nc3cc(C(F)(F)F)ccc3F)c(F)c2)c2c(N)ncnn2c1CN1CCS(=O)(=O)CC1` [Example 79, N-(4-{4-amino-6-(cyanomethyl)-7-[(1,1-dioxidothiomorpholin-4-yl)methyl]pyrrolo[2,1-f][1,2,4]triazin-5-yl}-2-fluorophenyl)-N′-[2-fluoro-5-(trifluoromethyl)phenyl]urea] it is less than 10 nM; for `Nc1ncnn2c(CN3CCOCC3)c(C(F)F)c(-c3ccc(NC(=O)Nc4cc(C(F)(F)F)ccn4)c(F)c3)c12` [Example 116, N-{4-[4-amino-6-(difluoromethyl)-7-(morpholin-4-ylmethyl)-pyrrolo[2,1-f][1,2,4]triazin-5-yl]-2-fluorophenyl}-N′-[4-(trifluoromethyl)pyridin-2-yl]urea] it is less than 10 nM. The same measure, in the same setting: the figure for `Nc1ncnn2c(CN3CCOCC3)c(/C=N/O)c(-c3ccc(NC(=O)Nc4cc(C(F)(F)F)ccc4F)cc3)c12` [Example 102, N-4-[4-amino-6-[(E)-(hydroxyimino)methyl]-7-(morpholin-4-ylmethyl)pyrrolo[2,1-f][1,2,4]triazin-5-yl]phenyl-N′-[2-fluoro-5-(trifluoromethyl)phenyl]urea] is less than 10 nM; for `COCc1c(-c2ccc(NC(=O)Nc3cc(C(F)(F)F)ccn3)cc2)c2c(N)ncnn2c1CN1CCN(C(C)=O)CC1` [Example 37, N-4-[7-[(4-acetylpiperazin-1-yl)methyl]-4-amino-6-(methoxy-methyl)pyrrolo[2,1-f][1,2,4]triazin-5-yl]phenyl-N′-[4-(trifluoromethyl)pyridin-2-yl]urea] it is 10 to 100 nM.

With `COCc1c(-c2ccc(NC(=O)Nc3cc(C(F)(F)F)ccc3F)cc2)c2c(N)ncnn2c1C#N` [Example 11, N-4-[4-amino-7-cyano-6-(methoxy-methyl)pyrrolo[2,1-f][1,2,4]triazin-5-yl]phenyl-N′-[2-fluoro-5-(trifluoromethyl)-phenyl]urea], the IC50 (bounds given in nM) was greater than 100 nM and the IC50 (upper bound in μM) is less than 1000 nM.

(Values after patent US8829185B2 (Bayer HealthCare LLC, priority 2005, dated 2014).)
